Test results published in PubChem BioAssay (NCI).
Several values for one entry are separate records, joined by “and”; a condition that tells them apart may be missing. Identical values can stand only once.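 96-well plates; 48 h exposure; 5 concentrations. Endpoints by linear interpolation between flanking doses. Not reached: highest tested concentration assigned. Abbreviation: GI50, concentration required for 50% inhibition of growth. The concentration for full growth arrest is given as TGI.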

How the values were obtained:
Test in all cases: inhibition of tumour cell growth, NCI panel, 48 h
HT29 colon = tested on: HT29 colon
A498 renal = tested on: A498 renal
DU-145 prostate = tested on: DU-145 prostate
NCI/ADR-RES ovarian = tested on: NCI/ADR-RES ovarian
NCI-H522 lung = tested on: NCI-H522 lung
MDA-MB-435 = tested on: MDA-MB-435
LXFL 529 NSCLC = tested on: LXFL 529 NSCLC
UACC-257 melanoma = tested on: UACC-257 melanoma
DMS 114 small cell lung = tested on: DMS 114 small cell lung
ACHN renal = tested on: ACHN renal

Row | SMILES | TGI (HT29 colon) [µM] | TGI (A498 renal) [µM] | TGI (DU-145 prostate) [µM] | TGI (NCI/ADR-RES ovarian) [µM] | TGI (NCI-H522 lung) | TGI (MDA-MB-435) [µM] | TGI (LXFL 529 NSCLC) [µM] | TGI (UACC-257 melanoma) | TGI (DMS 114 small cell lung) [µM] | TGI (ACHN renal) [µM] | GI50 (HT29 colon) [µM] | GI50 (DU-145 prostate) [µM] | GI50 (NCI-H522 lung) [µM] | GI50 (MDA-MB-435) [µM] | GI50 (UACC-257 melanoma) [µM]
1 | COc1cc(/C=C2\CCC(CN(C)C)C2=O)ccc1OC(=O)c1ccccc1 (stereo unspecified) | 26.6 | 33.1 | 29.8 | 48.7 | 10.4 µM | 27.3 | 9 | 26.6 µM | 40.9 | 28.7 | – | – | – | – | –
2 | C/C(=N\N=C(/[Se])N1CC2CCC(CC2)C1)c1ccccn1 | 2.6 | 1.31 | 1.68 | – | 0.615 µM | 0.619 | 0.0256 | 0.569 µM | < 0.0229 | 1.78 | – | – | – | – | –
3 | CC(=O)CCCCO | > 100 | > 100 | – | – | > 100 µM | – | > 100 | > 100 µM | > 100 | > 100 | – | – | – | – | –
4 | COc1cc2c[n+](C)c3c4ccccc4ccc3c2cc1OC (tested in a mixture with another compound) | 32.4 | – | 69.6 | > 100 | 4.37 µM and 11.6 µM | 21.5 | 16 | 6.15 µM and 49 µM | 14.6 | > 100 | 3.94 | 13.5 | 0.785 | 8.92 | 2.11
5 | NC(=O)C(c1ccccc1)N1CCOCC1 (stereo unspecified) | > 100 | > 100 | – | – | > 100 µM | – | > 100 | > 100 µM | > 100 | > 100 | – | – | – | – | –
6 | COc1ccccc1NC(=O)C1=C(C)NC(C)=C(C(=O)Nc2ccccc2OC)C1c1ccc(C)cc1 | > 100 | 82.7 | – | – | > 100 µM | – | > 100 | > 100 µM | > 100 | > 100 | – | – | – | – | –
7 | CC(=O)OC1(C)C(=O)OC1(C)C(C)=O (stereo unspecified) | > 100 | > 100 | – | – | > 100 µM | – | > 100 | > 100 µM | > 100 | > 100 | – | – | – | – | –
